Test results taken from the NIST ThermoML archive (doi:10.1016/j.fluid.2015.03.003).
± gives the expanded uncertainty stated by the source.

Conditions: 298.15 K, 101.33 kPa, Liquid; for electrical conductivity: Alternating current cell with electrodes; for mass density: Pycnometric method; for viscosity: Vibrating wire viscometry

Row | electrical conductivity | mass density | viscosity | Structure (SMILES)
1 | 0.2 ± 0.004 S/m | 1260 ± 340 kg/m3 | 134 ± 28 mPa·s | CC(C)Cn1cc[n+](C)c1.[Br-] [1-isobutyl-3-methylimidazolium bromide]
2 | 0.918 ± 0.006 S/m | 1200 ± 560 kg/m3 | 11.1 ± 1.8 mPa·s | CCCCn1cc[n+](CCCC)c1.[Br-] [1,3-dibutylimidazolium bromide]
3 | 0.08 ± 0.01 S/m | 1230 ± 330 kg/m3 | 363 ± 110 mPa·s | CCCCn1cc[n+](C)c1.[Br-] [1-butyl-3-methylimidazolium bromide]
4 | 0.403 ± 0.006 S/m | 1250 ± 610 kg/m3 | 67.6 ± 13 mPa·s | CC(C)Cn1cc[n+](CC(C)C)c1.[Br-] [1,3-diisobutylimidazolium bromide]
